# Measurements: patent US8557796B2, “Substituted 1-oxa-2,8-diaza-spiro [4,5] dec-2-ene derivatives and related treatment methods” (Gruenenthal GmbH, priority 2001, dated 2013)
# Tested on: batrachotoxin (BTX) binding site (binding site 2) of the sodium channel
# Assay: Bond test on the sodium channel, binding site 2 (BTX bond), [3H]-batrachotoxinin A20 α-benzoate displacement
# Settings: rat cerebrocortex synaptosomes
row,SMILES,"BTX bond, 10 μM, % inhibition [%]"
1,"O=C(C1=NOC2(CCN(S(=O)(=O)c3cccc(C(F)(F)F)c3)CC2)C1)N1CCN(Cc2ccc3ccccc3c2)CC1 [Example 35, (4-naphthalen-2-ylmethyl-piperazin-l-yl)-[8-(3-trifluoromethyl-benzenesulphonyl)-1-oxa-2,8-diaza-spiro[4,5]dec-2-en-3-yl]-methanone]",50
2,O=C(NCc1cccs1)C1=NOC2(CCN(C(=O)c3cccc(Cl)c3)CC2)C1 [Example 208],74
3,"Cc1onc(-c2c(Cl)cccc2Cl)c1C(=O)N1CCC2(CC1)CC(C(=O)NCc1cccs1)=NO2 [Example 197, 8-[3-(2,6-dichloro-phenyl)-5-methyl-isoxazole-4-carbonyl]-1-oxa-2,8-diaza-spiro[4,5]dec-2-ene-3-carboxylic acid (thiophen-2-ylmethyl)-amide]",70
4,"CCOC(=O)C1CCCCN1C(=O)C1=NOC2(CCN(C(=O)c3cc(C(C)(C)C)oc3C)CC2)C1 (centres unmarked) [Example 179, 1-[8-(5-tert-butyl-2-methyl-furan-3-carbonyl)-1-oxa-2,8-diaza-spiro[4,5]dec-2-ene-3-carbonyl]-piperidine-2-carboxylic acid ethyl ester]",55
5,"Cc1cc(C(=O)N2CCC3(CC2)CC(C(=O)NCC(C)C)=NO3)ccc1Br [Example 88, 8-(4-bromo-3-methyl-benzoyl)-1-oxa-2,8-diaza-spiro[4,5]dec-2-ene-3-carboxylic acid isobutyl-amide]",45
6,"O=C(NCC(c1ccccc1)c1ccccc1)C1=NOC2(CCN(S(=O)(=O)c3ccc(Cl)s3)CC2)C1 [Example 79, 8-(5-chloro-thiophene-2-sulphonyl)-1-oxa-2,8-diaza-spiro[4,5]dec-2-ene-3-carboxylic acid (2,2-diphenyl-ethyl)-amide]",83
7,"CN(C)S(=O)(=O)N1CCC2(CC1)CC(C(=O)N1CCN(CCCc3ccccc3)CC1)=NO2 [Example 80, 3-[4-(3-phenyl-propyl)-piperazine-1-carbonyl]-1-oxa-2,8-diaza-spiro[4,5]dec-2-ene-8-sulphonic acid dimethylamide]",44
8,"Cc1ccc(C(C)NC(=O)C2=NOC3(CCN(S(=O)(=O)c4cccs4)CC3)C2)cc1 (centres unmarked) [Example 23, 8-(thiophene-2-sulphonyl)-1-oxa-2,8-diaza-spiro[4,5]dec-2-ene-3-carboxylic acid (1-p-tolyl-ethyl)-amide]",60
9,"O=C(NCC1COc2ccccc2O1)C1=NOC2(CCN(S(=O)(=O)c3ccc(Cl)s3)CC2)C1 (centres unmarked) [Example 194, 8-(5-chloro-thiophene-2-sulphonyl)-1-oxa-2,8-diaza-spiro[4,5]dec-2-ene-3-carboxylic acid (2,3-dihydro-benzo[1,4]dioxin-2-ylmethyl)-amide]",68
10,"O=C(NCc1ccccc1)C1=NOC2(CCN(S(=O)(=O)c3cccc(Cl)c3)CC2)C1 [Example 210, 8-(3-chloro-benzenesulphonyl)-1-oxa-2,8-diaza-spiro[4,5]dec-2-ene-3-carboxylic acid benzylamide]",62
11,"Cc1ccc([N+](=O)[O-])cc1S(=O)(=O)N1CCC2(CC1)CC(C(=O)NCCN(C)C)=NO2 [Example 19, 8-(2-methyl-5-nitro-benzenesulphonyl)-1-oxa-2,8-diaza-spiro[4,5]dec-2-ene-3 carboxylic acid (2-dimethylamino-ethyl)-amide]",66
12,"CC(NC(=O)C1=NOC2(CCN(S(=O)(=O)c3cccs3)CC2)C1)c1cccc2c1OCCO2 (centres unmarked) [Example 84, 8-(thiophene-2-sulphonyl)-1-oxa-2,8-diaza-spiro[4,5]dec-2-ene-3-carboxylic acid [1-(2,3-dihydro-benzo[1,4]dioxin-5-yl)-ethyl]-amide]",58
13,O=C(NC1CCCC1)C1=NOC2(CCN(C(=O)c3ccccc3COC(=O)c3ccccc3)CC2)C1 [Example 188],77
14,"Cc1ccc(C(C)NC(=O)C2=NOC3(CCN(S(=O)(=O)c4ccc(C)cc4)CC3)C2)cc1 (centres unmarked) [Example 45, 8-(toluene-4-sulphonyl)-1-oxa-2,8-diaza-spiro[4,5]dec-2-ene-3-carboxylic acid (1-p-tolyl-ethyl)-amide]",49
15,"CCOC(=O)N1CCC(NC(=O)C2=NOC3(CCN(C(=O)C4CC4c4ccccc4)CC3)C2)CC1 (centres unmarked) [Example 55, 4-{[8-(2-phenyl-cyclopropanecarbonyl)-1-oxa-2,8-diaza-spiro[4,5]dec-2-ene-3-carbonyl]-amino}-piperidine-1-carboxylic acid ethyl ester]",47
16,"O=C(NCc1cccs1)C1=NOC2(CCN(S(=O)(=O)c3ccccc3Cl)CC2)C1 [Example 156, 8-(2-chloro-benzenesulphonyl)-1-oxa-2,8-diaza-spiro[4,5]dec-2-ene-3-carboxylic acid (thiophen-2-ylmethyl)-amide]",70
17,"O=C(Nc1ccccc1)C1=NOC2(CCN(C(=O)c3ccc(Br)cc3)CC2)C1 [Example 181, 8-(4-bromo-benzoyl)-1-oxa-2,8-diaza-spiro[4,5]dec-2-ene-3-acarboxylic cid phenylamide]",50
18,"O=C(NC1CCCC1OCc1ccccc1)C1=NOC2(CCN(S(=O)(=O)c3cccs3)CC2)C1 (centres unmarked) [Example 47, 8-(thiophene-2-sulphonyl)-1-oxa-2,8-diaza-spiro[4,5]dec-2-ene-3-carboxylic acid (2-benzyloxy-cyclopentyl)-amide]",71

# Same assay, conditions: rat cerebrocortex synaptosomes, 10 µM
row,SMILES,"BTX bond, 10 μM, % inhibition [%]"
1,"Cc1ccc(S(=O)(=O)N2CCC3(CC2)CC(C(=O)NC2CCCC2OCc2ccccc2)=NO3)cc1 (centres unmarked) [Example 73, 8-(toluene-4-sulphonyl)-1-oxa-2,8-diaza-spiro[4,5]dec-2-ene-3-carboxylic acid (2-benzyloxy-cyclopentyl)-amide]",75
2,"COc1ccc(S(=O)(=O)N2CCC3(CC2)CC(C(=O)NC2CCCC2OCc2ccccc2)=NO3)cc1 (centres unmarked) [Example 121, 8-(4-methoxy-benzenesulphonyl)-1-oxa-2,8-diaza-spiro[4,5]dec-2-ene-3-carboxylic acid (2-benzyloxy-cyclopentyl)-amide]",42
